Experimental data published in US20070191324A1, “Methods for treatment or prophylaxis of aldosterone-mediated pathogenic effects in a subject using an epoxy-steroidal aldosterone antagonist” (priority 1999, published 2007).

What was measured:
[1] = test system: older patients with systolic hypertension and/or widened pulse pressure; assay: Eplerenone versus amlodipine in systolic hypertension in older people, 24 weeks (Examples A-19, D-8); type: in vivo, human
Source text: At Week 10 or thereafter, if SBP is =170 mmHg on two consecutive visits, one to three days apart, and the patient is on the maximum dose of study drug, he/she must be withdrawn. Patients will receive double-blind study medication for a total of 24 weeks. Table A-19A illustrates the above-described dosing scheme.
Heart rate, BP, serum potassium levels, concomitant medications and adverse events will be assessed at each visit. […] Special studies: collagen markers [aminoterminal propeptide of type III procollagen (PIIINP), 7S domain of type IV collagen (7SIVC), and type I collagen telopeptide (ICTP)], plasma […] (PAI-1), tissue plasminogen activator (t-PA), microalbuminuria, and at selected sites, Ambulatory Blood Pressure Monitoring (ABPM) and arterial compliance will be done at Weeks 0, 14, and 24 or at Final Visit. Quality of Life Questionnaires will be done at visit 2A (beginning of single blind) and Weeks 0, 14, and 24 or at Final Visit. DNA genotyping will be performed at baseline.
In older patients, elevated systolic BP and wide pulse pressure predict cardiovascular risk better than diastolic BP. Reduced vascular compliance and intraglomerular hypertension typically accompany isolated systolic hypertension in older people.
Changes in arterial compliance, measured by pulse-wave velocity, microalbuminuria, and adverse effects (AEs) were assessed at baseline and after 24 weeks of therapy.

hypertensive patients = assay: Eplerenone vs. amlodipine, ambulatory blood pressure monitoring, 16 weeks (Example D-12); type: in vivo, human; details: in vivo
Source text: This was a multicenter, randomized, double-blind, active-controlled, placebo run-in, parallel group study. […] If symptomatic hypotension occurred at Week 2 or Weeks 4, 6, 8, or 12 and the patient was on the lowest dose level (Dose Level 1), the patient was to be withdrawn. Study assessments at protocol-specified timepoints included BP, heart rate, ABPM, Holter recording, clinical laboratory analyses including serum potassium levels, concomitant medications. Throughout the study, safety was assessed by routine clinical laboratory analyses, vital signs, physical examinations, 12-lead ECG, and monitoring of adverse events.

[2] = test system: patients with mild-to-moderate hypertension; assay: Eplerenone versus enalapril in essential hypertension, 12-month titration-to-effect (Example D-3); type: in vivo, human
Method: The study design is illustrated in FIG. D-6. Patients with mild-to-moderate hypertension (diastolic blood pressure [DBP]≧95 mmHg and <110 mmHg) were randomized to receive initially EPL 50 mg QD (n=253) or ENAL 10 mg QD (n=246). If DBP ≧90 mmHg at Weeks 4, 8, 12, 16, or 20, the dose of study medication was up-titrated incrementally to EPL 100 mg and 200 mg QD, or ENAL 20 mg and 40 mg QD. […] At 24 wks and 12 months, changes in BP, RAAS hormone profile, urinary albumin excretion (urinary albumin: creatinine ratio [UACR]), laboratory tests, safety, and adverse events (AEs) were assessed.

[3] = test system: patients with hypertension and left ventricular hypertrophy; assay: Eplerenone, enalapril and combination in left ventricular hypertrophy, 9 months (Examples A-15, D-4); type: in vivo, human
Source text: Table […] illustrates forth the above-described dosing scheme. […] Additional laboratory assessments of blood for clinical safety will be done monthly. Routine urinalysis will be done every three months. […] A blood sample for genotyping will be collected at Week 0. At screening and at Month 9, a 12-lead ECG and physical examination will be done. […] In case of early termination, an MRI and blood sample for TSH will be done for those patients who have received double-blind treatment for at least three months. At Weeks 0, 12 and Months 6 and 9, pharmacoeconomic data will be collected on all patients. The primary measure of efficacy is the change from baseline in LVM, as assessed by MRI, in the eplerenone group versus the enalapril group. […] Secondary measures of efficacy will be the following: […] (3) aortic compliance and ventricular filling parameters; and (4) special studies (PIIINP, microalbuminuria, PAI, and tPA). Additionally, the long-term safety and tolerability of the three treatment groups will be compared. […] The study design is illustrated in FIG. D-10. […] Left ventricular mass (LVM) (assayed by MRI), BP, collagen turnover, and tolerability were assessed at the 9-month endpoint.

[4] = test system: diabetic type 2 patients with hypertension and microalbuminuria; assay: Eplerenone, enalapril and combination in diabetic hypertensives with microalbuminuria, 24 weeks (Examples A-18, D-7); type: in vivo, human
[5] = test system: patients with mild to moderate hypertension; assay: Eplerenone/HCTZ dose ranging factorial design study (Example D-2); type: in vivo, human; details: eplerenone 25, 50 or 200 mg daily; HCTZ 12.5 or 25 mg daily; 8 weeks
Method: Patients were assessed at weeks 0, 2, 4, and 8. Study assessments at protocol-specified timepoints included blood pressure (BP), heart rate, clinical laboratory analyses, vital signs, physical examinations, 12-lead ECG, and monitoring of adverse events. A total of 614 patients were randomized.

[6] = test system: saline-loaded adrenalectomized rats treated with aldosterone; assay: Antimineralocorticoid activity in saline-loaded adrenalectomized rats treated with aldosterone (Example A-2); type: in vivo
Method: Methods: The antimineralocorticoid pharmacological activity was determined in saline-loaded adrenalectomized rats treated with aldosterone. […] Urinary sodium, potassium and water excretion were measured.

[7] = test system: saline-hydrated conscious dogs treated with aldosterone; assay: Antimineralocorticoid action in saline-hydrated conscious dogs treated with aldosterone (Example A-2); type: in vivo; details: aldosterone i.v. infusion; antagonist 10 mg/kg orally
[8] = test system: saline-loaded adrenalectomized rats treated with aldosterone; assay: Subcutaneous vs. oral eplerenone in saline-loaded adrenalectomized rats treated with aldosterone (Example A-3); type: in vivo; details: Table A-3A
Method: Urinary sodium, potassium and water excretion were measured. The results are expressed as the ratio of excreted urinary sodium to potassium (Na/K)±SEM.

[9] = test system: uninephrectomized rats given 1% NaCl and aldosterone infusion; assay: Volume expanded hypertensive rats, telemetry (Example A-4); type: in vivo; details: 24 h average after three weeks
[10] = after 24 weeks, titration-to-effect
[11] = Week 24, EPL 50-200 mg QD, ENAL 10-40 mg QD titrated
[12] = 9-month endpoint, forced titration
[13] = 9-month endpoint, EPL 200 mg, ENAL 40 mg, EPL 200 mg/ENAL 10 mg

In the case of `CCOC(=O)C1=C(COCCN)NC(C)=C(C(=O)OC)C1c1ccccc1Cl` (stereo not drawn) [Amlodipine, reference compound], the “Edema rates (%)” value ([1]; 24-week study) is reported as 25.2%, the peripheral edema frequency ([1]; 24 weeks) is reported as 25.2% and the “reduction in pulse pressure” value ([1]; 24 weeks) is reported as −13.4 mmHg. The “symptoms with significant and clinically meaningful worsening in distress from Baseline (QoL)” value ([1]; 24 weeks) was 21 symptoms, the “reduction in SBP” value ([1]; 24 weeks, EPL 50-200 mg QD, AML 2.5-10 mg QD) was −20.1 mmHg and the “Pulse Pressure (change)” value [1, 10] was −13.4 ± 0.95 mmHg. The “Systolic BP (change)” value [1, 10] was −20.1 ± 1.13 mmHg, the safety and tolerability ([1]; in vivo) was “safe and well tolerated” and the “Δ microalbuminuria (%)” value ([1]; only for patients with baseline microalbuminuria (>30 mg/g), 24 weeks) was −10.4%. The “reduction in UACR” value ([1]; patients with baseline microalbuminuria (>30 mg/g)) was −3.3%, the “incidence of peripheral edema” value (hypertensive patients) was “greater incidence of peripheral edema” and the safety and tolerability (hypertensive patients) was “safe and well tolerated”.

`CCOC(=O)[C@H](CCc1ccccc1)N[C@@H](C)C(=O)N1CCC[C@H]1C(=O)O` [Enalapril, reference compound] was tested, and the patients experiencing coughing ([2]; 12-month study) was 6.5%, the patients experiencing hyperglycemia ([2]; 12-month study) was 2.8% and the “patients experiencing urinary tract infections (UTI)” value ([2]; 12-month study) was 2.8%. It also gave a DBP change ([2]; 12 months) of −14.1 mmHg, an SBP change ([2]; 12 months) of −14.8 mmHg and a DBP change [2, 11] of −11.3 mmHg. The SBP change [2, 11] was −12.7 mmHg, the “reduction in UACR” value ([2]; Week 24, patients with baseline UACR ≧30 mg/g) was −25.7% and the safety and tolerability ([2]; in vivo) was “safe and well tolerated”. The “DBP Adjusted mean change” value [3, 12] was −13.0 mmHg, the “SBP Adjusted mean change” value [3, 12] was −22.5 mmHg and the “decrease from baseline in UACR” value [3, 13] was −39.1%. The “decrease from baseline in collagen turnover” value [3, 13] was −7.3%, the patients experiencing coughing ([3]; 9-month study) was 14.1% and the “LVM Adjusted mean change [g (SE)]” value ([3]; left ventricular mass by MRI, 9-month endpoint, forced titration (EPL 50-200 mg, ENAL 10-40 mg)) was −19.7 (3.20) g. For the same compound, the “patients withdrawn for hyperkalemia” value ([4]; 24 weeks) was 2 patients, the “subjects with elevated K+ (≧6.0 mEq/L)” value ([4]; 24 weeks) was 2 subjects and the “patients requiring addition of hydrochlorothiazide (HCTZ)” value ([4]; EPL 200 mg QD, ENAL 40 mg QD, EPL 200 mg/ENAL 10 mg, 24 weeks) was 43/81. For the same compound, the “Adjusted mean change ΔDBP (Week 8-baseline)” value ([4]; Week 8) was −11.6, the “Adjusted mean change ΔSBP (Week 8-baseline)” value ([4]; Week 8) was −15.4 and the “Adjusted mean change ΔDBP (Week 24-baseline)” value ([4]; Week 24) was −15.0. The “Adjusted mean change ΔSBP (Week 24-baseline)” value ([4]; Week 24) was −20.4 and the tolerability ([4]; in vivo) was “well tolerated”.

With `NS(=O)(=O)c1cc2c(cc1Cl)NCNS2(=O)=O` [HCTZ, reference compound] the “DBP, change from Baseline to the Final Visit” value [5] was “dose-dependent decreases in DBP” and the “SBP, change from Baseline to the Final Visit” value [5] was “dose-dependent decreases in SBP”.

For `CC(=O)S[C@@H]1CC2=CC(=O)CC[C@]2(C)[C@H]2CC[C@@]3(C)[C@@H](CC[C@@]34CCC(=O)O4)[C@H]12` [Spironolactone], the “Urinary Na/K ± SEM” value ([6]; aldosterone & antagonist 1 mg/kg by gavage) was 2.26 ± 0.25, the “Urinary Na/K ± SEM” value ([6]; aldosterone & antagonist 3 mg/kg by gavage) was 2.90 ± 0.25 and the “Urinary Na/K ± SEM” value ([6]; aldosterone & antagonist 10 mg/kg by gavage) was 4.38 ± 0.26. The “Na/K Ratio” value [7] was 1.7, the “Urinary Excretion Potassium” value [7] was 7.4 ± 0.7 mmol/2 h and the “Urinary Excretion Sodium” value [7] was 12.6 ± 2 mmol/2 h. The “Mean Na/K” value ([8]; aldosterone + antagonist 10 mg/100 g rat) was 1.56, the “Mean Na/K” value ([8]; aldosterone + antagonist 30 mg/100 g rat) was 3.02 and the “Mean Na/K” value ([8]; aldosterone + antagonist 100 mg/100 g rat) was 4.02. The “HR: Heart Rate” value ([9]; aldosterone & antagonist 100 mg/kg s.c.) was 338 ± 4 beats/min and the “HR: Heart Rate” value ([9]; aldosterone & antagonist 200 mg/kg s.c.) was 336 ± 7 beats/min.
